Experimental data reported in patent US10287269B2, “Pyrazolyl pyrimidinone compounds as PDE2 inhibitors” (Merck Sharp & Dohme Corp., priority 2015, dated 2019).
Like-named read-outs stand apart in the source and are kept apart here.

Molecular target: T1, Rhesus PDE2A3 (Macaca mulatta, UniProt B3VTJ2)
T1 construct: made in house; host or cells: AD293 cells, transient transfection, pcDNA3.3-TOPO; lysate supernatant used as enzyme
T1 sequence (B3VTJ2 1-941): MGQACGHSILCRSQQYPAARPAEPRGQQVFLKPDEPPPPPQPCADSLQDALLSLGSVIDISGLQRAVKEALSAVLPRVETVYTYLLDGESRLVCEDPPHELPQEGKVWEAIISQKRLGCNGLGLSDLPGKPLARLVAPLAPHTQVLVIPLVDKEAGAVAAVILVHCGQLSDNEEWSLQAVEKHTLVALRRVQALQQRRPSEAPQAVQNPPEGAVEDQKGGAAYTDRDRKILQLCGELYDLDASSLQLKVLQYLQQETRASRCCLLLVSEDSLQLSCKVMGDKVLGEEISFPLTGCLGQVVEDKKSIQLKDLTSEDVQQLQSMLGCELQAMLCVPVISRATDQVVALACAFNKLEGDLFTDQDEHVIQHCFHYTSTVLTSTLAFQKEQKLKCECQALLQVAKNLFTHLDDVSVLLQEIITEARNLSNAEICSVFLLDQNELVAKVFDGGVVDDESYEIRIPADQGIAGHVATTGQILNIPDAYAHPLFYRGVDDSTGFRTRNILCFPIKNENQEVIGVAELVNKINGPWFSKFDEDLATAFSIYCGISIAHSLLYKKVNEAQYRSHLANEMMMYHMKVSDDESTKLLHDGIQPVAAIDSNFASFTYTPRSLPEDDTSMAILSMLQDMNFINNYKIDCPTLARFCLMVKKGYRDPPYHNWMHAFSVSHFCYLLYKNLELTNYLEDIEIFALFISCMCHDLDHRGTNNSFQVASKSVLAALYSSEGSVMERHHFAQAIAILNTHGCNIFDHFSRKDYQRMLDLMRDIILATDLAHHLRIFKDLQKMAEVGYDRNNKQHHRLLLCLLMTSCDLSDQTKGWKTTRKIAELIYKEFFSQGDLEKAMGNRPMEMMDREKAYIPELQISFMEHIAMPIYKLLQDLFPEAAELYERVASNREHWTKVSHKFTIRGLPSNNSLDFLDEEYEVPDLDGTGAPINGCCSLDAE
Experiment: PDE2 fluorescence polarization (IMAP FP) inhibition assay, rhesus enzyme
Format: biochemical, rhesus macaque
Outline: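 Lysate of AD293 cells transiently expressing rhesus PDE2A3, diluted for ~20% substrate conversion, with 50 nM FAM-cAMP and 1 uM cGMP activator in pH 7.2 Tris/MgCl2 buffer, 60 min at room temperature.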

[1] = Lab A, read-out: Rhesus PDE2 Ki (nM) Lab A
[2] = Lab B, read-out: Rhesus PDE2 Ki (nM) Lab B

SMILES | Ki [1] | Ki [2]
COc1cccc(Cc2nc(-c3cnn(C(C)c4ccc(C(F)(F)F)cc4F)c3)cc(=O)[nH]2)c1 (single isomer, unassigned) [Example 141, (S)- or (R)-6-(1-(1-(2-fluoro-4-(trifluoromethyl)phenyl)ethyl)-1H-pyrazol-4-yl)-2-(3-methoxybenzyl)pyrimidin-4(3H)-one] | 25.6 nM | 8.7 nM
COc1cc(Cc2nc(-c3cnn(C(C)c4ccc(C(F)(F)F)cc4F)c3)cc(=O)[nH]2)ccc1F (single isomer, unassigned) [Example 142, (R)- or (S)-2-(4-fluoro-3-methoxybenzyl)-6-(1-(1-(2-fluoro-4-(trifluoromethyl)phenyl)ethyl)-1H-pyrazol-4-yl)pyrimidin-4(3H)-one] | 3.3 nM | 1.4 nM
COc1cc(Cc2nc(-c3cnn(C(C)c4ccc(C(F)(F)F)cc4F)c3)cc(=O)[nH]2)ccc1F (single isomer, unassigned) [Example 143, (S)- or (R)-2-(4-fluoro-3-methoxybenzyl)-6-(1-(1-(2-fluoro-4-(trifluoromethyl)phenyl)ethyl)-1H-pyrazol-4-yl)pyrimidin-4(3H)-one] | 21.3 nM | 10.9 nM
COc1ccc(Cc2nc(-c3cnn(C(C)c4ccc(C(F)(F)F)cc4F)c3)cc(=O)[nH]2)cc1F (single isomer, unassigned) [Example 146, (R)- or (S)-6-(1-(1-(2-fluoro-4-(trifluoromethyl)phenyl)ethyl)-1H-pyrazol-4-yl)-2-(3-fluoro-4-methoxybenzyl)pyrimidin-4(3H)-one] | 31.5 nM | –
COc1ccc(Cc2nc(-c3cnn(C(C)c4ccc(C(F)(F)F)cc4F)c3)cc(=O)[nH]2)cc1F (single isomer, unassigned) [Example 147, (S)- or (R)-6-(1-(1-(2-fluoro-4-(trifluoromethyl)phenyl)ethyl)-1H-pyrazol-4-yl)-2-(3-fluoro-4-methoxybenzyl)pyrimidin-4(3H)-one] | 3.6 nM | –
Cc1ccc(C(C)n2cc(-c3cc(=O)[nH]c(C)n3)cn2)c(Cl)c1 (single isomer, unassigned) [Example 148, (R)- or (S)-6-(1-(1-(2-chloro-4-methylphenyl)ethyl)-1H-pyrazol-4-yl)-2-methylpyrimidin-4(3H)-one] | 47.9 nM | –
CC(C)c1nc(-c2cnn(C(C)c3ccc(C(F)(F)F)cc3F)c2)cc(=O)[nH]1 (stereo not drawn) [Example 9, 6-(1-(1-(2-Fluoro-4-(trifluoromethyl)phenyl)ethyl)-1H-pyrazol-4-yl)-2-isopropylpyrimidin-4(3H)-one] | 58.8 nM | 30.7 nM
CC(c1ccc(C(F)(F)F)cc1F)n1cc(-c2cc(=O)[nH]c(C3CC3)n2)cn1 (stereo not drawn) [Example 10] | 25 nM | –
Cc1nc(-c2cnn(Cc3ccc(OC(F)(F)F)cc3)c2)cc(=O)[nH]1 [Example 29, 2-Methyl-6-(1-(4-(trifluoromethoxy)benzyl)-1H-pyrazol-4-yl)pyrimidin-4(3H)-one] | – | 1210 nM
Cc1nc(-n2cc(Cc3ccc(OC(F)(F)F)cc3)cn2)cc(=O)[nH]1 [Example 30, 2-Methyl-6-(4-(4-(trifluoromethoxy)benzyl)-1H-pyrazol-1-yl)pyrimidin-4(3H)-one] | – | 2940 nM
CCC(c1ccc(C(F)(F)F)cc1F)n1cc(-c2cc(=O)[nH]c(C)n2)cn1 (stereo not drawn) [Example 33, 6-(1-(1-(2-fluoro-4-(trifluoromethyl)phenyl)propyl)-1H-pyrazol-4-yl)-2-methylpyrimidin-4(3H)-one] | 36.6 nM | 19.7 nM
Cc1nc(-c2cnn(C(c3ccc(C(F)(F)F)cc3F)C(C)C)c2)cc(=O)[nH]1 (stereo not drawn) [Example 34, 6-(1-(1-(2-fluoro-4-(trifluoromethyl)phenyl)-2-methylpropyl)-1H-pyrazol-4-yl)-2-methylpynmidin-4(3H)-one] | 54.6 nM | 26.9 nM
CC(c1ccc(C(F)(F)F)cc1F)n1cc(-c2cc(=O)[nH]c(Cc3ccccc3)n2)cn1 (stereo not drawn) [Example 35, 2-benzyl-6-(1-(1-(2-fluoro-4-(trifluoromethyl)phenyl)ethyl)-1H-pyrazol-4-yl)pyrimidin-4(3H)-one] | 38.3 nM | 17.3 nM
CCc1nc(-c2cnn(C(C)c3ccc(C(F)(F)F)cc3F)c2)cc(=O)[nH]1 (stereo not drawn) [Example 36, 2-ethyl-6-(1-(1-(2-fluoro-4-(trifluoromethyl)phenyl)ethyl)-1H-pyrazol-4-yl)pyrimidin-4(3H)-one] | 25.7 nM | –
Cc1nc(-c2cnn(C3(c4ccc(C(F)(F)F)cc4F)CCC3)c2)cc(=O)[nH]1 [Example 37, 6-(1-(1-(2-fluoro-4-(trifluoromethyl)phenyl)cyclobutyl)-1H-pyrazol-4-yl)-2-methylpyrimidin-4(3H)-one] | 13.1 nM | –
Cc1nc(-n2cc(C(C)c3ccc(C4CC4)cc3)cn2)cc(=O)[nH]1 (stereo not drawn) [Example 39, 6-(4-(1-(4-cyclopropylphenyl)ethyl)-1H-pyrazol-1-yl)-2-methylpyrimidin-4(3H)-one] | – | 99.9 nM
Cc1nc(-n2cc(C(C)c3ccc(C4(C)CC4)cc3)cn2)cc(=O)[nH]1 (stereo not drawn) [Example 40, 2-methyl-6-(4-(1-(4-(1-methylcyclopropyl)phenyl)ethyl)-1H-pyrazol-1-yl)pyrimidin-4(3H)-one] | – | 211 nM
Cc1nc(-n2cc(Cc3ccc(C(F)(F)F)cc3)cn2)cc(=O)[nH]1 [Example 48, 2-methyl-6-(4-(4-(trifluoromethyl)benzyl)-1H-pyrazol-1-yl)pyrimidin-4(3H)-one] | – | 333 nM
Cc1nc(-c2cn(C(C)c3ccc(C(F)(F)F)cc3)nc2C)cc(=O)[nH]1 (stereo not drawn) [Example 80, 2-methyl-6-(3-methyl-1-(1-(4-(trifluoromethyl)phenyl)ethyl)-1H-pyrazol-4-yl)pyrimidin-4(3H)-one] | – | 194 nM
Cc1nc(-c2cnn(C(C)c3ccc(C(F)(F)F)cc3)c2)cc(=O)[nH]1 (stereo not drawn) [Example 126, 2-methyl-6-(1-(1-(4-(trifluoromethyl)phenyl)ethyl)-1H-pyrazol-4-yl)pyrimidin-4(3H)-one] | – | 306 nM
CCC(c1ccc(C(F)(F)F)cc1)c1cnn(-c2cc(=O)[nH]c(C)n2)c1 (stereo not drawn) [Example 129, 2-methyl-6-(4-(1-(4-(trifluoromethyl)phenyl)propyl)-1H-pyrazol-1-yl)pyrimidin-4(3H)-one] | – | 184 nM
Cc1nc(-n2cc(C(c3ccc(C(F)(F)F)cc3)C(C)C)cn2)cc(=O)[nH]1 (stereo not drawn) [Example 130] | – | 138 nM
COc1ccc(Cc2nc(-n3cc(C(C)c4ccc(C(F)(F)F)cc4)cn3)cc(=O)[nH]2)cc1OC (stereo not drawn) [Example 137, 2-(3,4-dimethoxybenzyl)-6-(4-(1-(4-(trifluoromethyl)phenyl)ethyl)-1H-pyrazol-1-yl)pyrimidin-4(3H)-one] | 1.3 nM | 0.6 nM
Cc1ccc(C(C)n2cc(-c3cc(=O)[nH]c(C)n3)cn2)cc1 (stereo not drawn) [Example 153, 2-methyl-6-(1-(1-(p-tolyl)ethyl)-1H-pyrazol-4-yl)pyrimidin-4(3H)-one] | – | 825 nM
CCCC(c1ccc(C(F)(F)F)cc1)n1cc(-c2cc(=O)[nH]c(C)n2)cn1 (stereo not drawn) [Example 154, 2-methyl-6-(1-(1-(4-(trifluoromethyl)phenyl)butyl)-1H-pyrazol-4-yl)pynmidin-4(3H)-one] | – | 244 nM
